Consider 27 compounds from patent US10730874B2 (Shire Human Genetic Therapies, Inc., priority 2018, dated 2020).

By pEC50 is commonly meant the EC50 on a negative log10 scale, so that one unit is a factor of ten.

The structures appear in SMILES notation. pEC50: −log10 of the molar value. Some results are limits rather than exact numbers.

Sequence of human activated kallikrein enzyme (plasma kallikrein) (P03952 391-638): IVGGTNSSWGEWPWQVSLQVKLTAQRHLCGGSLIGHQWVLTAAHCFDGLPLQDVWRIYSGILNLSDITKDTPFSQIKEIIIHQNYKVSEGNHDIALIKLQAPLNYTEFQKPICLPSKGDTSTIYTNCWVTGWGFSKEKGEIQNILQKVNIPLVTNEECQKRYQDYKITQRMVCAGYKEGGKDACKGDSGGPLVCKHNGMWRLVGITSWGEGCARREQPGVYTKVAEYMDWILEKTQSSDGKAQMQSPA
Sequence of human activated kallikrein enzyme (plasma kallikrein) (P03952 20-390 partner): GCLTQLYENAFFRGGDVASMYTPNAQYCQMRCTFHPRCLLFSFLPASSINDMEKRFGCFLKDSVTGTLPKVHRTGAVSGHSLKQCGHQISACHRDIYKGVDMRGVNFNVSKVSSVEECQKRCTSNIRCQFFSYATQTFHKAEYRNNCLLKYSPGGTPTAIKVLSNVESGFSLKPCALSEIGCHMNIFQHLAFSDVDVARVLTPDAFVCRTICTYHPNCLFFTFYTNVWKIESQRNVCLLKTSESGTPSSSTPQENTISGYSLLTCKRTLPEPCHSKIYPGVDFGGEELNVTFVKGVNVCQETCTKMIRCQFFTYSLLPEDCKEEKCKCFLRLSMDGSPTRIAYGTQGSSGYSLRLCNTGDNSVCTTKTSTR

In the assay the target is human activated kallikrein enzyme (plasma kallikrein) (Homo sapiens (Human), UniProt P03952). Briefly: Inhibition of human activated plasma kallikrein, fluorogenic peptide substrate assay, 500 pM enzyme format. The note with it: 500 pM activated kallikrein enzyme, 300 uM Pro-Phe-Arg-7-amido-4-methylcoumarin substrate, 30 min preincubation, 10 min at RT; read-out: Primary Dose Response Assay: Average EC50. In kind it is biochemical. How it is done:
Example compounds were evaluated for inhibition of the human activated kallikrein enzyme in two formats of an assay employing a fluorogenic peptide substrate. In one assay format, the concentrations of reagents were as follows: 20 mM Tris pH 7.5, 1 mM EDTA, 150 mM sodium chloride, 0.1% PEG-400, 0.1% Triton X-100, 500 pM activated kallikrein enzyme, 300 uM Pro-Phe-Arg-7-amido-4-methylcoumarin substrate. Prior to reaction initiation with substrate, enzyme and inhibitors were preincubated for 30 min at RT. After initiation with substrate, reactions were incubated for 10 min at RT and fluorescence emission at 460 nm from 380 nm excitation measured with a microplate reader. In another assay format, the concentrations of reagents were as follows: 20 mM Tris pH 7.5, 1 mM EDTA, 150 mM sodium chloride, 0.1% PEG-400, 0.1% Triton X-100, 5 pM activated kallikrein enzyme, 300 uM Pro-Phe-Arg-7-amido-4-methylcoumarin substrate. Prior to reaction initiation with substrate, enzyme and inhibitors were preincubated for 30 min at RT. After initiation with substrate, reactions were incubated for 18 h at RT and fluorescence emission at 460 nm from 380 nm excitation measured with a microplate reader.
With `COCc1nn(Cc2cn3cc(C4CC4)ccc3n2)cc1C(=O)NCc1ncn2ccc(Cl)cc12` [Example I-31, N-((7-chloroimidazo[1,5-a]pyridin-1-yl)methyl)-1-((6-cyclopropylimidazo[1,2-a]pyridin-2-yl)methyl)-3-(methoxymethyl)-1H-pyrazole-4-carboxamide], the pEC50 is more than 9.00.
As for `COCc1c(C(=O)NCc2ncn3ccc(Cl)cc23)cnn1Cc1cn2cc(C3CC3)ccc2n1` [Example I-32, N-((7-chloroimidazo[1,5-a]pyridin-1-yl)methyl)-1-((6-cyclopropylimidazo[1,2-a]pyridin-2-yl)methyl)-5-(methoxymethyl)-1H-pyrazole-4-carboxamide], the pEC50 is 7.00 to 8.00.
Consider `Cc1ccc2nc(Cn3cc(C(=O)NCc4ncn5ccc(Cl)c(Cl)c45)cn3)cn2c1` [Example I-33, N-((7,8-dichloroimidazo[1,5-a]pyridin-1-yl)methyl)-1-((6-methylimidazo[1,2-a]pyridin-2-yl)methyl)-1H-pyrazole-4-carboxamide], for which the pEC50 is 7.00 to 8.00.
As for `CCc1c(Cl)ccc2nc(Cn3cc(C(=O)NCc4ncn5ccc(Cl)cc45)cn3)cn12` [Example I-34, 1-((6-chloro-5-ethylimidazo[1,2-a]pyridin-2-yl)methyl)-N-((7-chloroimidazo[1,5-a]pyridin-1-yl)methyl)-1H-pyrazole-4-carboxamide], the pEC50 is 7.00 to 8.00.
To `Cc1ccc2nc(Cn3cc(C(=O)NCc4ncn5ccc(Cl)c(C)c45)cn3)cn2c1` [Example I-35, N-((7-chloro-8-methylimidazo[1,5-a]pyridin-1-yl)methyl)-1-((6-methylimidazo[1,2-a]pyridin-2-yl)methyl)-1H-pyrazole-4-carboxamide] belongs 5.70 to 7.00.
Consider `O=C(NCc1ncn2ccc(Cl)cc12)c1cnn(Cc2cn3cc(Br)c(Cl)cc3n2)c1` [Example I-36, 1-((6-bromo-7-chloroimidazo[1,2-a]pyridin-2-yl)methyl)-N-((7-chloroimidazo[1,5-a]pyridin-1-yl)methyl)-1H-pyrazole-4-carboxamide], for which the pEC50 was 7.00 to 8.00.
With `O=C(NCc1ncn2ccc(Br)cc12)c1cnn(Cc2cn3cc(Br)c(Cl)cc3n2)c1` [Example I-37, 1-((6-bromo-7-chloroimidazo[1,2-a]pyridin-2-yl)methyl)-N-((7-bromoimidazo[1,5-a]pyridin-1-yl)methyl)-1H-pyrazole-4-carboxamide], the pEC50 is 7.00 to 8.00.
To `O=C(NCc1ncn2ccc(Cl)cc12)c1cnc(Cc2cn3cc(C4CC4)ccc3n2)s1` [Example I-38, N-((7-chloroimidazo[1,5-a]pyridin-1-yl)methyl)-2-((6-cyclopropylimidazo[1,2-a]pyridin-2-yl)methyl)thiazole-5-carboxamide] belongs 8.00 to 9.00; to `O=C(NCc1ncn2ccc(Cl)cc12)c1cnn(Cc2cn3c(Cl)c(Br)ccc3n2)c1` [Example I-39, 1-((6-bromo-5-chloroimidazo[1,2-a]pyridin-2-yl)methyl)-N-((7-chloroimidazo[1,5-a]pyridin-1-yl)methyl)-1H-pyrazole-4-carboxamide], 8.00 to 9.00.
The value for `O=C(NCc1ncn2ccc(Br)cc12)c1cnn(Cc2cn3c(Cl)c(Br)ccc3n2)c1` [Example I-40, 1-((6-bromo-5-chloroimidazo[1,2-a]pyridin-2-yl)methyl)-N-((7-bromoimidazo[1,5-a]pyridin-1-yl)methyl)-1H-pyrazole-4-carboxamide] was more than 9.00.
Consider `CC1(C)CC1c1ccn2cc(Cn3cc(C(=O)NCc4ncn5ccc(Cl)cc45)cn3)nc2c1` (stereo not drawn) [Example I-41, N-((7-chloroimidazo[1,5-a]pyridin-1-yl)methyl)-1-((7-(2,2-dimethylcyclopropyl)imidazo[1,2-a]pyridin-2-yl)methyl)-1H-pyrazole-4-carboxamide], for which the pEC50 is 7.00 to 8.00.
In the case of `CC(C)=Cc1ccn2cc(Cn3cc(C(=O)NCc4ncn5ccc(Cl)cc45)cn3)nc2c1` [Example I-42, N-((7-chloroimidazo[1,5-a]pyridin-1-yl)methyl)-1-((7-(2-methylprop-1-en-1-yl)imidazo[1,2-a]pyridin-2-yl)methyl)-1H-pyrazole-4-carboxamide], the pEC50 was 7.00 to 8.00.
Regarding `CC1CC1c1ccc2nc(Cn3cc(C(=O)NCc4ncn5ccc(Cl)cc45)cn3)cn2c1` (stereo not drawn) [Example I-43, N-((7-chloroimidazo[1,5-a]pyridin-1-yl)methyl)-1-((6-(2-methylcyclopropyl)imidazo[1,2-a]pyridin-2-yl)methyl)-1H-pyrazole-4-carboxamide], the pEC50 was more than 9.00.
As for `CC1CC1c1ccc2nc(Cn3cc(C(=O)NCc4ncn5ccc(Br)cc45)cn3)cn2c1` (stereo not drawn) [Example I-44, N-((7-bromoimidazo[1,5-a]pyridin-1-yl)methyl)-1-((6-(2-methylcyclopropyl)imidazo[1,2-a]pyridin-2-yl)methyl)-1H-pyrazole-4-carboxamide], the pEC50 was more than 9.00.
For `O=C(NCc1ncn2ccc(I)cc12)c1cnn(Cc2cn3cc(C4CC4)ccc3n2)c1` [Example I-45, 1-((6-cyclopropylimidazo[1,2-a]pyridin-2-yl)methyl)-N-((7-iodoimidazo[1,5-a]pyridin-1-yl)methyl)-1H-pyrazole-4-carboxamide], the pEC50 was 8.00 to 9.00.
On to `CCc1cccc2nc(Cn3cc(C(=O)NCc4ncn5ccc(Cl)cc45)cn3)cn12` [Example I-46, N-((7-chloroimidazo[1,5-a]pyridin-1-yl)methyl)-1-((5-ethylimidazo[1,2-a]pyridin-2-yl)methyl)-1H-pyrazole-4-carboxamide], for which the pEC50 is 7.00 to 8.00.
As to `C/C=C\c1ccc2nc(Cn3cc(C(=O)NCc4ncn5ccc(Cl)cc45)cn3)cn2c1` [Example I-47, (Z)—N-((7-chloroimidazo[1,5-a]pyridin-1-yl)methyl)-1-((6-(prop-1-en-1-yl)imidazo[1,2-a]pyridin-2-yl)methyl)-1H-pyrazole-4-carboxamide], the pEC50 is 8.00 to 9.00.
Regarding `O=C(NCc1ncn2ccc(C3CC3)cc12)c1cnn(Cc2cn3cc(C4CC4)ccc3n2)c1` [Example I-48, 1-((6-cyclopropylimidazo[1,2-a]pyridin-2-yl)methyl)-N-((7-cyclopropylimidazo[1,5-a]pyridin-1-yl)methyl)-1H-pyrazole-4-carboxamide], the pEC50 is 5.70 to 7.00.
For `CC1(C)CC1c1ccn2cc(Cn3cc(C(=O)NCc4ncn5ccc(Br)cc45)cn3)nc2c1` (stereo not drawn) [Example I-49, N-((7-bromoimidazo[1,5-a]pyridin-1-yl)methyl)-1-((7-(2,2-dimethylcyclopropyl)imidazo[1,2-a]pyridin-2-yl)methyl)-1H-pyrazole-4-carboxamide], the negative-log EC50 (pEC50) was 7.00 to 8.00.
As for `O=C(NCc1ncn2ccc(Cl)cc12)c1nnc(Cc2cn3cc(C4CC4)ccc3n2)o1` [Example I-51, N-((7-chloroimidazo[1,5-a]pyridin-1-yl)methyl)-5-((6-cyclopropylimidazo[1,2-a]pyridin-2-yl)methyl)-1,3,4-oxadiazole-2-carboxamide], the pEC50 was more than 9.00.
`O=C(NCc1ncn2ccc(Br)cc12)c1nnc(Cc2cn3cc(C4CC4)ccc3n2)o1` [Example I-52, N-((7-bromoimidazo[1,5-a]pyridin-1-yl)methyl)-5-((6-cyclopropylimidazo[1,2-a]pyridin-2-yl)methyl)-1,3,4-oxadiazole-2-carboxamide]: the pEC50 was more than 9.00.
On to `Nc1ccc2c(CNC(=O)c3cnn(Cc4cn5cc(C6CC6)ccc5n4)c3)ncn2c1` [Example I-53, N-((6-aminoimidazo[1,5-a]pyridin-1-yl)methyl)-1-((6-cyclopropylimidazo[1,2-a]pyridin-2-yl)methyl)-1H-pyrazole-4-carboxamide], for which the pEC50 is 5.70 to 7.00.
The value for `N#Cc1cccc2nc(Cn3cc(C(=O)NCc4ncn5ccc(Cl)cc45)cn3)cn12` [Example I-54, N-((7-chloroimidazo[1,5-a]pyridin-1-yl)methyl)-1-((5-cyanoimidazo[1,2-a]pyridin-2-yl)methyl)-1H-pyrazole-4-carboxamide] was 7.00 to 8.00.
As to `N#Cc1cccc2nc(Cn3cc(C(=O)NCc4ncn5ccc(Br)cc45)cn3)cn12` [Example I-55, N-((7-bromoimidazo[1,5-a]pyridin-1-yl)methyl)-1-((5-cyanoimidazo[1,2-a]pyridin-2-yl)methyl)-1H-pyrazole-4-carboxamide], the pEC50 was 7.00 to 8.00.
To `O=C(NCc1ncn2ccc(Br)cc12)c1cnn(Cc2cc3cc(C4CC4)ccn3n2)c1` [Example I-56, N-((7-bromoimidazo[1,5-a]pyridin-1-yl)methyl)-1-((5-cyclopropylpyrazolo[1,5-a]pyridin-2-yl)methyl)-1H-pyrazole-4-carboxamide] belongs 8.00 to 9.00.
In the case of `Cc1ccc2nc(Cn3cc(C(=O)NCc4ncn5c(N)cc(Cl)cc45)cn3)cn2c1` [Example I-58, N-((5-amino-7-chloroimidazo[1,5-a]pyridin-1-yl)methyl)-1-((6-methylimidazo[1,2-a]pyridin-2-yl)methyl)-1H-pyrazole-4-carboxamide], the pEC50 is 8.00 to 9.00.
Take `O=C(NCc1ncn2ccc(Cl)cc12)c1cnn(Cc2cn3c(F)c(C4CC4)ccc3n2)c1` [Example I-59, N-((7-chloroimidazo[1,5-a]pyridin-1-yl)methyl)-1-((6-cyclopropyl-5-fluoroimidazo[1,2-a]pyridin-2-yl)methyl)-1H-pyrazole-4-carboxamide]: the pEC50 is more than 9.00.
